According to patent publication US10189826B2, “Heterocyclic compounds and methods of use” (Medivation Technologies LLC, priority 2015, dated 2019):
Read-outs that look alike come from different tables or passages of the source.

How the values were obtained:
[1] = test system: SREBP-2 transcriptional activity (SREBP2 cleavage) in HepG2_LSSprom cells; test: Luciferase reporter driven by a SREBP-2 specific promoter in HepG2_LSSprom cells; format: cell-based; conditions: 24 h, read-out: SREBP2 Cleavage (IC50 μM) 24 h
Procedure, shortened: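 HepG2_LSSprom cells dosed at 0.625-10 μM in serum-free medium for 6 h (or 24 h), then luciferase luminescence read. Signal normalized to vehicle (100%); IC50 by four-parameter nonlinear fit; five independent experiments, triplicate wells.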

[2] = Cytotoxicity assay (LDH release) in HepG2_LSSprom cells; format: cell-based; conditions: human, HepG2 LSSprom cells, 24 h treatment, LDH release
Procedure, shortened: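 HepG2_LSSprom cells exposed to compound at 0.625–10 μM in serum-free medium for 6 h or 24 h. Medium LDH measured colorimetrically at 490 nm; release expressed as % of lysis control after vehicle subtraction, negatives set to 0; five independent experiments, triplicate wells, mean±SEM.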

[3] = 24 h treatment, HepG2_LSSprom cells

Compound	IC50 [1, 3] [µM]	IC50 at 24 h [2] [µM]	IC50 [1] [µM]
CC(C)(C)c1cc(-c2cc(-c3ccc(C(=O)N4CCC(N)CC4)cc3Cl)cs2)ccn1 [Compound 72, 1-{4-[5-(2-tert-butylpyridin-4-yl)thiophen-3-yl]-3-chlorobenzoyl}piperidin-4-amine]	> 10	> 10	–
CC(C)(C)c1cc(-c2csc(-c3ccc(C(=O)N(CCC(=O)O)c4ccc(F)cc4)cc3Cl)c2)ccn1 [Compound 73, 3-(N-[4-[4-(2-tert-butyl-4-pyridyl)-2-thienyl]-3-chloro-benzoyl]-4-fluoro-anilino)propanoic acid]	–	> 10	> 3
CC(C)(C)c1cc(-c2csc(-c3ccc(C(=O)N4CCC[C@@H](N)C4)cc3Cl)c2)ccn1 [Compound 74a, (R)-(3-aminopiperidin-1-yl)(4-(4-(2-(tert-butyl)pyridin-4-yl)thiophen-2-yl)-3-chlorophenyl)methanone]	0.74	> 10	–
CC(C)(C)c1cc(-c2csc(-c3ccc(C(=O)N4CCC[C@H](N)C4)cc3Cl)c2)ccn1 [Compound 74b, (3S)-1-{4-[4-(2-tert-butylpyridin-4-yl)thiophen-2-yl]-3-chlorobenzoyl}piperidin-3-amine]	0.51	> 10	–
CNC1CCCN(C(=O)c2ccc(-c3csc(-c4ccnc(C(C)(C)C)c4)c3)c(Cl)c2)C1 (stereo not shown) [Compound 75, 1-{4-[5-(2-tert-butylpyridin-4-yl)thiophen-3-yl]-3-chlorobenzoyl}-N-methylpiperidin-3-amine]	3.2	> 10	–
CC(C)(C)C(=O)NC1CCN(C(=O)c2ccc(-c3csc(-c4ccnc(C(C)(C)C)c4)c3)c(Cl)c2)CC1 [Compound 76, N-(1-{4-[5-(2-tert-butylpyridin-4-yl)thiophen-3-yl]-3-chlorobenzoyl}piperidin-4-yl)-2,2-dimethylpropanamide]	1.6	> 10	–
Cc1sc(-c2ccc(C(=O)N3CCNC(=O)C3)cc2Cl)cc1-c1ccnc(C(C)(C)C)c1 [Compound 77, 4-{4-[4-(2-tert-butylpyridin-4-yl)-5-methylthiophen-2-yl]-3-chlorobenzoyl}piperazin-2-one]	2.3	> 10	–
CC(C)(C)OC(=O)N1CCC(NC(=O)c2ccc(-c3csc(-c4ccnc(C(C)(C)C)c4)c3)c(Cl)c2)CC1 [Compound 78, tert-butyl 4-{4-[5-(2-tert-butylpyridin-4-yl)thiophen-3-yl]-3-chlorobenzamido}piperidine-1-carboxylate]	0.2	> 10	–
Cc1sc(-c2ccc(C(=O)N3CCC[C@@H](NC(=O)OC(C)(C)C)C3)cc2Cl)cc1-c1ccnc(C(C)(C)C)c1 [Compound 79a, tert-butyl N-[(3R)-1-{4-[4-(2-tert-butylpyridin-4-yl)-5-methylthiophen-2-yl]-3-chlorobenzoyl}piperidin-3-yl]carbamate]	0.29	> 10	–
Cc1sc(-c2ccc(C(=O)N3CCC[C@H](NC(=O)OC(C)(C)C)C3)cc2Cl)cc1-c1ccnc(C(C)(C)C)c1 [Compound 79b, tert-butyl N-[(3S)-1-{4-[4-(2-tert-butylpyridin-4-yl)-5-methylthiophen-2-yl]-3-chlorobenzoyl}piperidin-3-yl]carbamate]	0.52	> 10	–
CC(C)(C)c1cc(-c2cc(-c3ccc(C(=O)N4CCCC(NCc5ccc(Cl)cc5)C4)cc3Cl)cs2)ccn1 (stereo not shown) [Compound 80, 1-{4-[5-(2-tert-butylpyridin-4-yl)thiophen-3-yl]-3-chlorobenzoyl}-N-[(4-chlorophenyl)methyl]piperidin-3-amine]	0.06	> 10	–
CC(C)(C)c1cc(-c2cc(-c3ccc(C(=O)N4CCC[C@@H](NCc5ccc(Cl)cc5)C4)cc3Cl)cs2)ccn1 [Compound 80a, (R)-(4-(5-(2-(tert-butyl)pyridin-4-yl)thiophen-3-yl)-3-chlorophenyl)(3-((4-chlorobenzyl)amino)piperidin-1-yl)methanone]	0.095	> 10	–
CC(C)(C)c1cc(-c2cc(-c3ccc(C(=O)N4CCC[C@H](NCc5ccc(Cl)cc5)C4)cc3Cl)cs2)ccn1 [Compound 80b, (S)-(4-(5-(2-(tert-butyl)pyridin-4-yl)thiophen-3-yl)-3-chlorophenyl)(3-((4-chlorobenzyl)amino)piperidin-1-yl)methanone]	0.04	> 10	–
CC(C)(C)c1cc(-c2cc(-c3ccc(C(=O)N4CCCC(NCc5cccc(Cl)c5)C4)cc3Cl)cs2)ccn1 (stereo not shown) [Compound 81, 1-{4-[5-(2-tert-butylpyridin-4-yl)thiophen-3-yl]-3-chlorobenzoyl}-N-[(3-chlorophenyl)methyl]piperidin-3-amine]	0.14	> 10	–
CC(C)(C)c1cc(-c2cc(-c3ccc(C(=O)N4CCC(O)C4)cc3Cl)cs2)ccn1 (stereo not shown) [Compound 82, [4-[5-(2-tert-butyl-4-pyridyl)-3-thienyl]-3-chloro-phenyl]-(3-hydroxypyrrolidin-1-yl)methanone]	0.5	> 10	–
CC(C)(C)c1cc(-c2cc(-c3ccc(C(=O)N4CCCC5(CCNC5=O)C4)cc3Cl)cs2)ccn1 (stereo not shown) [Compound 83, 7-{4-[5-(2-tert-butylpyridin-4-yl)thiophen-3-yl]-3-chlorobenzoyl}-2,7-diazaspiro[4.5]decan-1-one]	0.47	> 10	–
CC(C)(C)c1cc(-c2cc(-c3ccc(C(=O)N4CCN5CCCC5C4)cc3Cl)cs2)ccn1 (stereo not shown) [Compound 84, 2-tert-butyl-4-[4-(2-chloro-4-{octahydropyrrolo[1,2-a]piperazine-2-carbonyl}phenyl)thiophen-2-yl]pyridine]	> 3	> 10	–
CC(C)(C)c1cc(-c2nc(-c3ccc(C(=O)N4CCCC(N)C4)cc3Cl)c[nH]2)ccn1 (stereo not shown) [Compound 85, 1-{4-[2-(2-tert-butylpyridin-4-yl)-1H-imidazol-4-yl]-3-chlorobenzoyl}piperidin-3-amine]	–	> 10	> 3
CC(C)(C)c1cc(-c2csc(-c3ccc(C(=O)N4CCC(O)CC4)cc3Cl)c2)ccn1 [Compound 86, 1-{4-[4-(2-tert-butylpyridin-4-yl)thiophen-2-yl]-3-chlorobenzoyl}piperidin-4-ol]	0.06	> 10	–
Cc1sc(-c2ccc(C(=O)N3CCC[C@H](N)C3)cc2Cl)cc1-c1ccnc(C(C)(C)C)c1 [Compound 87a, (3S)-1-{4-[4-(2-tert-butylpyridin-4-yl)-5-methylthiophen-2-yl]-3-chlorobenzoyl}piperidin-3-amine]	> 10	> 10	–
Cc1sc(-c2ccc(C(=O)N3CCC[C@@H](N)C3)cc2Cl)cc1-c1ccnc(C(C)(C)C)c1 [Compound 87b, (3R)-1-{4-[4-(2-tert-butylpyridin-4-yl)-5-methylthiophen-2-yl]-3-chlorobenzoyl}piperidin-3-amine]	> 10	> 10	–
CC(C)(C)c1cc(-c2csc(-c3ccc(C(=O)N4CCC(C(=O)O)CC4)cc3Cl)c2)ccn1 [Compound 88, 1-{4-[4-(2-tert-butylpyridin-4-yl)thiophen-2-yl]-3-chlorobenzoyl}piperidine-4-carboxylic acid]	2.8	> 10	–
CC(C)(C)c1cc(-c2csc(-c3ccc(C(=O)N4CCCC(O)C4)cc3Cl)c2)ccn1 (stereo not shown) [Compound 89, 1-{4-[4-(2-tert-butylpyridin-4-yl)thiophen-2-yl]-3-chlorobenzoyl}piperidin-3-ol]	0.037	> 10	–
